Usually bioavailability stands for dose-corrected exposure relative to a reference, in per cent.

Here are results for three compounds from patent US8377473B2, “Slow release magnesium composition and uses thereof” (Magceutics, Inc., priority 2009, dated 2013).

Data set [1] relates to rats. Description: Margin of safety: incidence of diarrhea with magnesium preparations in drinking water. The note with it: elemental magnesium via drinking water for 4 days, non-linear regression. The protocol:
Animals: Adult male Sprague-Dawley rats were obtained from Wei Tong Li Hua Beijing, China. Rats were individually-housed with free access to standard food and water under a 12:12 h reversed light-dark cycle, with light onset at 8:00 p.m. […] All experimental procedures were approved by the Tsinghua University Committees on Animal Care.
(Magceutics Inc., USA), Magnesium chloride and glycinate (Modern Eastern Fine Chemical, China), magnesium gluconate and citrate (Sigma-Aldrich, Germany). Lactose was obtained from Biobasic Inc (Beijing, China).
The magnesium dose dissolved in the daily intake volume of water was determined based on intake of ˜30 ml/day/rat. Animals were supplied with the magnesium supplemented drinking water for 4 days, after which time the number of animals that developed diarrhea was monitored and calculated as a percentage of the total number of animals in the respective group.
(§1) Statistical analysis: All data were approximated with a normal distribution. […] One-way analysis of variance was used to analyze the cerebrospinal fluid data. GraphPad prism was used for data analysis (version 5.00, GraphPad software Inc.).

A short description of data set [2]: Magnesium content in the cerebrospinal fluid. The note with it: 24 days of treatment, approximately 50 mg/kg/day elemental magnesium via drinking water.
Description: as §1

For data set [3] the following is noted: cited from earlier work.
A further data set deals with diabetic patients. The note with it: nearly 1 g of magnesium daily for 1 month; cited from earlier work.
Data set [4] deals with rats. Conditions: young and aged rats, cited from earlier work.

As for `[Cl-].[Cl-].[Mg+2]` [magnesium chloride], the “TD50 (toxic dose required to induce diarrhea in 50% of animals)” value in the data set on rats [1] is given as 90.0 mg/kg/day. In addition, the “magnesium concentration in cerebrospinal fluid ([Mg2+]CSF)” value in data set [2] is on record as “relatively limited effect”.

Turning to `[O]=[Mg]` [magnesium oxide], the magnesium absorption rate result in data set [3] (Firoz and Graber 2001) was “about 4%”. In addition, the bioavailability in data set [3] (Ranade and Somberg 2001) is 4%. Besides, in the data set with diabetic patients, the “increase of serum magnesium level” value was “about 10%” and the metabolic control result is listed as “only minor improvement”. Moreover, in the data set on rats [4] (food containing 2% magnesium oxide for 8 days), the cognitive function result was “some sign of improvement”. In addition, in the data set with rats [4] (food containing 2% magnesium oxide), the side-effect result was “diarrhea and weight loss”.

Consider magnesium gluconate, for which the “TD50 (toxic dose required to induce diarrhea in 50% of animals)” value in the data set with rats [1] was 99.7 mg/kg/day.
